In experiment [1] the target is T1, RmlA (glucose-1-phosphate thymidylyltransferase, gene 1774) (Pectobacterium actinidiae, UniProt A0ABW8GFN0).
T1 construct: gene rfbA; intact rmlA cloned from GX1 genomic DNA into pET32a; fusion protein; E. coli ArcticExpress (DE3); FITC-labelled
In words: microscale thermophoresis, FITC-labelled RmlA. The note with it: read-out: binding affinity; 50 mM Tris-HCl, 1 mM MgCl2, 0.05% Tween 20, pH 8.0; ligand as disodium salt. (In MST a laser heats a spot of the sample, and binding alters the fluorescence response.)

Experiment [2] addresses T2, RmlA (glucose-1-phosphate thymidylyltransferase, gene 1774) (Pectobacterium actinidiae, UniProt A0ABW8GFN0, G107A/D108A/N109A/G144A/E159A/V170A/E196A).
T2 construct: gene rfbA
The note with it: read-out: binding affinity; 50 mM Tris-HCl, 1 mM MgCl2, 0.05% Tween 20, pH 8.0; ligand as disodium salt.

The record followed here is PMC12227328, “The Enzyme Glucose‐1‐Phosphate Thymidylyltransferase RmlA Plays a Crucial Role in the Pathogenesis of Pectobacterium actinidiae GX1” (Molecular Plant Pathology, 2025).

As for `Cc1cn([C@H]2C[C@H](O)[C@@H](COP(=O)(O)OP(=O)(O)OP(=O)(O)O)O2)c(=O)[nH]c1=O` [dTTP], the Kd came out at 199 µM in experiment [1] and 2710 µM in experiment [2].

In the case of `O=P(O)(O)O[C@H]1O[C@H](CO)[C@@H](O)[C@H](O)[C@H]1O` [G-1-P], the Kd was 73.3 µM in experiment [1] and 8960 µM in experiment [2].
